Assay results taken from patent US20140148400A1, “CARBONIC ANHYDRASE INHIBITORS WITH […] ACTIVITY” (METASIGNAL THERAPEUTICS INC., priority 2010, published 2014).
Read-outs that look alike come from different tables or passages of the source. Values belong to the compound of their own block, whether it stands above or below them.

Key:
4T1 mammary tumor cells = conditions: 2×10^5 4T1 cells i.v.; daily i.p. injection for 6 days from 24 hours post inoculation; imaged 24 hours after final dose
hCA II = hCA II (Homo sapiens, UniProt P00918); test: In vitro CA inhibition assay, hCA II; assay type: biochemical
human CA isoforms = conditions: background statement; cited from earlier work
hCA I = hCA I (Homo sapiens, UniProt P00915); test: In vitro CA inhibition assay, hCA I; assay type: biochemical; conditions: unit from table title
Chain of hCA I (P00915 whole entry): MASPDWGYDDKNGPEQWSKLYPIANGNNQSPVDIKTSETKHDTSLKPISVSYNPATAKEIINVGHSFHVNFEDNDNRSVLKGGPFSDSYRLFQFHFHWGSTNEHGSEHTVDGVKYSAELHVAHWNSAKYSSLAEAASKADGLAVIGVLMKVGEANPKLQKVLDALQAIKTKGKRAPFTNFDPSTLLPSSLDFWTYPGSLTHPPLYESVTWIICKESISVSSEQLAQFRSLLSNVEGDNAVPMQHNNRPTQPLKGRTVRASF

hCA IX = hCA IX (Homo sapiens, UniProt Q16790); test: In vitro CA inhibition assay, hCA IX; assay type: biochemical; conditions: cells with nM printed beside the value
4T1 primary tumors = test: Growth of orthotopically implanted 4T1 primary tumors; assay type: in vivo, female BALB/c mice; conditions: 1×10^6 cells/mouse orthotopic; tumors established 14 days; daily i.p. for 14 days
[1] = unit from table title, read-out: hCA II inhibition data in KI

SMILES: Cc1cc(=O)oc2cc(O[C@H]3O[C@H](CO)[C@@H](O)[C@H](O)[C@@H]3O)ccc12 [MST-204, 4-methylumbellifer-7-yl-α-D-mannopyranoside]
formation of metastases by 4T1 mammary tumor cells (tumor-derived bioluminescence) (4T1 mammary tumor cells): reduced the formation of metastases

SMILES: O=c1ccc2ccccc2o1 [unsubstituted coumarin, coumarin]
inhibition of all investigated human CA isoforms (human CA isoforms): nonselective, potent inhibitors

SMILES: COc1cc2oc(=O)ccc2cc1[C@@H](O)CC(C)C [6-(1S-hydroxy-3-methylbutyl)-7-methoxy-2H-chromen-2-one]
inhibition of all investigated human CA isoforms (human CA isoforms): nonselective, potent inhibitors

SMILES: N#Cc1cc2ccc(O)cc2oc1=O [MST-247]
Ki (hCA I): 104 µM

SMILES: CC(C)(C)[Si](C)(C)Oc1ccc2oc(=O)ccc2c1 [MST-230, 6-(tert-Butyldimethylsilyloxy)-2H-chromen-2-one]
Ki (hCA II; [1]): > 200 µM

SMILES: CC(C)(C)[Si](C)(C)Oc1ccc2ccc(=O)oc2c1 [MST-231, 7-(tert-Butyldimethylsilyloxy)-2H-chromen-2-one]
Ki (hCA II): > 200 µM

SMILES: Cc1cc(=O)oc2cc(OC3OC(C)C(O)C(O)C3O)ccc12 [MST-205, 4-methylumbellifer-7-yl- -L-rhamnopyranoside]
Ki (hCA I): > 100 µM
Ki (hCA II; [1]): > 100 µM
Ki (hCA IX): 201 nM
growth of 4T1 primary tumors (caliper-based measurement) (4T1 primary tumors): Attenuates the Growth of 4T1 Primary Tumors
formation of metastases by 4T1 mammary tumor cells (tumor-derived bioluminescence) (4T1 mammary tumor cells): inhibits the formation of metastases

Next, values leading:

melting point: 223 °C
SMILES: Cc1cc(=O)oc2cc(OC3OCC(O)C(O)C3O)ccc12 [MST-201, 4-methylumbellifer-7-yl- -D-xylopyranoside]

Ki (hCA II; [1]): > 200 µM
SMILES: C=CCOc1ccc2oc(=S)ccc2c1 [MST-240, 6-(Allyloxy)-2H-chromene-2-thione]

melting point: 164 to 166 °C
SMILES: O=c1ccc2cc(OCc3cn(-c4ccccc4Cl)nn3)ccc2o1 [MST-225, 6-((1-(2-chlorophenyl)-1H-1,2,3-triazol-4-yl)methoxy)-2H-chromen-2-one]

melting point: 97 to 101 °C
SMILES: C#CCOc1ccc2ccc(=S)oc2c1 [MST-217, 7-(prop-2-ynyloxy)-2H-chromene-2-thione]

melting point: 190 to 191 °C
SMILES: Cc1cc(=O)oc2ccc(OCCn3c([N+](=O)[O-])cnc3C)cc12 [MST-249, 6-O-[2-(2-methyl-5-nitro-imidazol-1-yl)ethyl]-4-methylcoumarine]

melting point: 238 to 240 °C
SMILES: Cc1cc(=O)oc2cc(OCCn3c([N+](=O)[O-])cnc3C)ccc12 [MST-248, 7-O-[2-(2-methyl-5-nitro-imidazol-1-yl)ethyl]-4-methylcoumarine]

Ki (hCA II; [1]): > 200 µM
SMILES: Oc1ccc2oc(=S)ccc2c1 [MST-233, 6-Hydroxy-2H-chromene-2-thione]

Ki (hCA I): 1 µM
Ki (hCA II; [1]): > 100 µM
SMILES: Cc1cc(=O)oc2cc(OC3OC(CO)C(O)C(O)C3O)ccc12 (single isomer, unassigned) [MST-202, 4-methylumbellifer-7-yl- -D-glucopyranoside]

Ki (hCA I): 0.59 µM
Ki (hCA II; [1]): 77 µM
Ki (hCA IX): 93 nM
SMILES: Cc1cc(=O)oc2cc(OC3OC(CO)C(O)C(O)C3O)ccc12 (single isomer, unassigned) [MST-203, 4-methylumbellifer-7-yl-1-D-galactopyranoside]
